Reference: patent US8853406B2, “Substituted phenylenediamines as inhibitors of the interaction between MDM2 and P53” (Janssen Pharmaceutica NV, priority 2007, dated 2014)

Key:
[1] = system: p53 in A2780 cells; assay: p53 ELISA in A2780 cells (capacity to preserve p53); type: cell-based; conditions: lowest dose giving at least 140% of the p53 value of the control, 16 hours
Description: The capacity of the compounds to preserve p53 in A2780 cells was measured with the p53 enzyme linked immunosorbent assay. The p53 assay is a “sandwich” enzyme immunoassay employing two polyclonal antibodies. A polyclonal antibody, specific for the p53 protein, has been immobilized onto the surface of the plastic wells. Any p53 present in the sample to be assayed will bind to the capture antibody. The biotinylated detector polyclonal antibody also recognizes p53 protein, and will bind to any p53, which has been retained by the capture antibody. The detector antibody, in turn, is bond by horseradish peroxidase-conjugated streptavidin. The horseradish peroxidase catalyses the conversion of the chromogenic substrate o-phenylene diamine, the intensity of which is proportional to the amount of p53 protein bond to the plate. The colored reaction product is quantified using a spectrophotometer. Quantitation is achieved by the construction of a standard curve using known concentrations of purified recombinant HIS tagged p53 protein (see example C.1.).
A2780 cells (ATCC) were cultivated in RPMI 1640 supplemented with 10% fetal calf serum (FCS), 2 mM L-glutamine and gentamycin at 37° C. in a humidified incubator with 5% CO2.
A2780 cells were seeded at 20.000 cells per well in a 96 well plate, cultured for 24 hours and treated with compound for 16 hours at 37° C. in a humidified incubator. After incubation, the cells were washed once with phosphate-buffered saline and 30 μl, per well, low salt RIPA buffer (20 mM tris, pH7.0, 0.5 mM EDTA, 1% Nonidet P40, 0.5% DOC, 0.05% SDS, 1 mM PMSF, 1 μg/ml aprotinin and 0.5 μ/ml leupeptin) was added. Plates were placed on ice for 30 minutes to complete the lysis. p53 protein was detected in de lysates by using the sandwich ELISA, described below.
High binding polystyrene EIA/RIA 96 well plates (Costar 9018) were coated with the capture antibody pAb1801 (Abcam ab28-100) at a concentration of 1 μg/ml in coating buffer (0.1 M NaHCO3 pH8.2), 50 μl per well. The antibody was allowed to adhere overnight at 4° C. Coated plates were washed once with phosphate-buffered saline (PBS)/0.05% Tween 20 and 300 μl of blocking buffer (PBS, 1% bovine serum albumins (BSA)) was added, for an incubation period of 2 hours at room temperature. Dilutions of purified recombinant HIS tagged p53 protein, ranging from 3-200 ng/ml, were made in blocking buffer and used as standards.
Plates were washed twice with PBS/0.05% Tween 20 and blocking buffer or standards were added at 80 μl/well. To the standards, 20 μl of lysis buffer was added. The samples were added to the other wells at 20 μl lysate/well. After an overnight incubation at 4° C., plates were washed twice with PBS/0.05% Tween 20. Aliquots of 100 μl secondary polyclonal antibody p53(FL-393) (Tebubio, sc-6243) at a concentration of 1 μg/ml in blocking buffer were added to each well and allowed to adhere for 2 hours at room temperature. Plates were washed three times with PBS/0.05% Tween 20. Detection antibody anti-rabbit HRP (sc-2004, Tebubio) at 0.04 μg/ml in PBS/1% BSA was added and incubated for 1 hour at room temperature. Plates were washed three times with PBS/0.05% Tween 20 and 100 μl of substrate buffer was added (substrate buffer was prepared shortly before use by adding 1 tablet of 10 mg o-phenylene diamine (OPD) from Sigma and 125 μl 3% H2O2 to 25 ml OPD buffer: 35 mM citric acid, 66 mM Na2HPO4, pH5.6). After 5 to 10 minutes, colour reaction was stopped by adding 50 μl stop buffer (1 M H2SO4) per well. The absorbance at dual wavelengths of 490/655 nm was measured using a Biorad micro plate reader and the results were then analyzed.
For each experiment, controls (containing no drug) and a blank incubation (containing no cells or drugs) were run in parallel. The blank value was subtracted from all control and sample values. For each sample, the value of p53 (in absorbance units) was expressed as the percentage of the value for p53 present in the control. […]

[2] = system: Male NMRI mice; assay: Ro-4-1284 antagonism in mice (drug induced neurological effects); type: in vivo; conditions: for activity on observations in Ro-4-1284 antagonism test: 80 mg/kg, oral administration, 3 animals; for drug induced neurological side effects: Ro-4-1284 antagonism in mice
Description: The test is a modification of a procedure described by Colpaert et al. (1975).^3 Male NMRI mice (22±3 g) were housed in macrolon observation cages (L×W×H: 11×12×17 cm; n=3 per cage). At the start of the experiments immediately before test compound administration, the initial body temperature of the mice was measured with a precision of 0.1° C. by inserting the thermo-sensitive probe (1.0 mm diameter) of an electric thermometer (Comark) to a constant depth of 3 cm into the esophagus until a stable reading was obtained. The right eye pupil diameter was measured with a graduated microscope and expressed in 1/24 mm units. Fifteen min after test compound administration, the mice were challenged with Ro-4-1284 (10 mg/kg, s.c.). Ro-4-1284 is a reserpine-like vesicular monoamine transport (VMAT-2) inhibitor, which rapidly depletes secretory vesicles.^3,4 Fifteen, 30 and 60 min after challenge, the mice were scored for palpebral opening (0, 1, 2, 3, 4, 5) and locomotor activity (−1, 0, 1, 2, 3). At the 60-min interval, immediately after the scoring of overt behavior, the right eye pupil diameter and the esophageal temperature were measured again. Abnormal phenomena such as intensive sniffing, chewing, rearing, hyperemia, piloerection, salivation, tremors, convulsions and death were noted (the latter phenomena were also noted when occurring before Ro-4-1284 administration). Criteria for drug-induced effects: reversal of ptosis: palpebral opening score >1 at 15, 30 or 60 min (2.7, 0.5 and 0% false positive controls, respectively; n>350); induction of prostration: score −1 for locomotion at 15, 30 or 60 min (never observed in controls); reversal of hypomotility: score >0 for locomotion at 15, 30 and 60 min (2.2, 0.8 and 0% false positive controls, respectively); reversal of miosis: pupil diameter >5 units at 60 min (0.8% false positives); potentiation of hypothermia: temperature decrease (over the 1-h time interval)>9.0° C. (1.4% false positives); reversal of hypothermia: temperature decrease <3.0° C. (1.8% false positives).
According to the standard procedure, R0-4-1284 is injected 15 min following subcutaneous or oral administration and observations start 15 min later. Doses are initially given to 3 animals. When at least 2 out of the 3 animals show activity for at least one of the observations, the compound is considered active.

SMILES	A2780 p53-elisa LAD ([1]; listed as drawing 36)	activity on observations in Ro-4-1284 antagonism test [2]	drug induced neurological side effects [2]	A2780 p53-elisa LAD ([1]; listed as drawing 35)
Cc1cc(Nc2ccnc3c2CCC3O)ccc1NCCc1c[nH]c2c(C)cccc12 (single isomer, unassigned) [Compound No. 2]	1.00E-07	did not show activity on any observation on any animal	No	–
Cc1cc(Nc2ccnc3c2CCC3O)ccc1NCCc1c[nH]c2c(C)cccc12 (single isomer, unassigned) [Compound No. 1]	–	did not show activity on any observation on any animal	No	3.00E-08
